Measured values taken from US20110160147A1, “NOVEL DUAL TARGETING A[…]” (priority 2008, published 2011).
Where “and” joins values, the source holds several entries; their conditions need not be identical. Equal values may be shown once.

Columns and labels:
αvβ3 receptor = αvβ3 receptor (Homo sapiens, UniProt P05106+P06756); experiment: Solid-phase binding assay, inhibition of [125I]Echistatin binding to αvβ3 receptor
Procedure: (§1) The receptor binding assays were performed as described (Orlando R. A., et al., J. Biol. Chem. 1991, 266, 19543). αvβ3 and αvβ5 were diluted to 500 ng/ml and 1 μg/ml, respectively, in coating buffer (20 mM Tris, pH 7.4, 150 mM NaCl, 2 mM CaCl2, 1 mM MgCl2, 1 mM MnCl2) and an aliquot of 100 μL was added to a 96-well microtiter plate and incubated overnight at 4° C. The plate was washed once with blocking/binding buffer (50 mM Tris, pH 7.4, 100 mM NaCl, 2 mM CaCl2, 1 mM MgCl2, 1 mM MnCl2, 1% bovine serum albumin), and then was incubated for additional 2 h at RT The plate was rinsed twice with the same buffer and incubated for 3 h at RT with radiolabeled ligand [^125I]Echistatin (Amersham Pharmacia Biotech) 0.05 nM (0.1 nM for αv β5) in the presence of competing inhibitors. After the incubation, the wells were washed and radioactivity was determined with a gamma-counter (Packard). Non-specific binding of ligand was determined with molar excess (200 nM) of cold echistatin.
(§2) The IC50 values reported in Tables 1 and 2 were calculated as the concentrations of compounds required for 50% inhibition of echistatin binding and were estimated by the Prism GraphPad program. The Ki of the competing ligands were calculated according to the Cheng-Prusoff equation (Cheng Y. C., et al., Biochem. Pharmacol., 1973, 22, 3099). Values are the mean±log standard error of triplicate determinations from two independent experiments.

[1] = Antitumour activity against A2780 ovarian carcinoma xenografted in CD1 nude mice; assay type: in vivo; details: CD1 nude, mouse, in vivo, sc; s.c. qdx5/wx2w; read-out: approximate maximum tolerate dose (MTD)
Procedure: (§3) Tumour cell lines (3×10^6) were injected s.c. into the right flank of CD1 nude mice (Harlan). Each experimental group included 10 mice. Tumours were implanted on day 0, and tumour growth was followed by biweekly measurements of tumour diameters with a Vernier caliper. Tumour volume was calculated according to the formula: TV (mm^3)=d^2×D/2, where d and D are the shortest diameter and the longest diameter respectively. Drug treatment started when tumours were just measurable on day 3 after tumour inoculation. The drug was administered subcutaneously for two weeks according to the schedule qd×5/w×2w at different doses in a volume of 10 ml/kg. Control mice were treated with the vehicle (10% DMSO).
(§4) Drug efficacy was assessed as described below. • a) TVI in drug-treated versus control mice was expressed as follows: TVI (%)=100−(mean TV treated/mean TV control)×100. TVI was evaluated 6 days after the last treatment, this timing corresponding to the time necessary to observe a doubling of tumour volume in the control mice. • b) Log cell kill (LCK) was calculated using the following formula: LCK=(T−C)/3.32×DT where T and C are the mean time (in days) required for treated (T) and control (C) tumours, respectively to reach a determined volume, and DT is the time necessary to observe a doubling of tumour volume in the control mice. • c) CR was defined as disappearance of the tumour lasting at least 6 days after the end of treatments. Tumours that had not regrown by the end of the experiment were considered “cured”.
(§5) Toxic effects of drug treatment were assessed as described below. • a) BWL was calculated as follows: BWL (%)=100−(mean body weight day x/mean body weight day 1)×100, where day 1 is the first day of treatment, and day x is any day thereafter. Mice were weighed every day throughout the period of treatment. • b) Lethal toxicity was defined as any death in treated groups occurring before any control death. Mice were inspected daily for mortality.
(§6) TI (therapeutic index) was calculated as ratio MTD/ED80.

[2] = system: A2780 ovarian ca. xenografted in CD1 nude mice; experiment: as above; assay type: in vivo; details: for TVI % versus control mice: 6 days after last treatment
Procedure: as §3, §4, §5, §6

αvβ5 receptors = αvβ5 receptors (Homo sapiens, UniProt P06756+P18084); experiment: Solid-phase binding assay, inhibition of [125I]Echistatin binding to αvβ5 receptors
Chain of αvβ5 receptors (P06756 31-889 limits assumed): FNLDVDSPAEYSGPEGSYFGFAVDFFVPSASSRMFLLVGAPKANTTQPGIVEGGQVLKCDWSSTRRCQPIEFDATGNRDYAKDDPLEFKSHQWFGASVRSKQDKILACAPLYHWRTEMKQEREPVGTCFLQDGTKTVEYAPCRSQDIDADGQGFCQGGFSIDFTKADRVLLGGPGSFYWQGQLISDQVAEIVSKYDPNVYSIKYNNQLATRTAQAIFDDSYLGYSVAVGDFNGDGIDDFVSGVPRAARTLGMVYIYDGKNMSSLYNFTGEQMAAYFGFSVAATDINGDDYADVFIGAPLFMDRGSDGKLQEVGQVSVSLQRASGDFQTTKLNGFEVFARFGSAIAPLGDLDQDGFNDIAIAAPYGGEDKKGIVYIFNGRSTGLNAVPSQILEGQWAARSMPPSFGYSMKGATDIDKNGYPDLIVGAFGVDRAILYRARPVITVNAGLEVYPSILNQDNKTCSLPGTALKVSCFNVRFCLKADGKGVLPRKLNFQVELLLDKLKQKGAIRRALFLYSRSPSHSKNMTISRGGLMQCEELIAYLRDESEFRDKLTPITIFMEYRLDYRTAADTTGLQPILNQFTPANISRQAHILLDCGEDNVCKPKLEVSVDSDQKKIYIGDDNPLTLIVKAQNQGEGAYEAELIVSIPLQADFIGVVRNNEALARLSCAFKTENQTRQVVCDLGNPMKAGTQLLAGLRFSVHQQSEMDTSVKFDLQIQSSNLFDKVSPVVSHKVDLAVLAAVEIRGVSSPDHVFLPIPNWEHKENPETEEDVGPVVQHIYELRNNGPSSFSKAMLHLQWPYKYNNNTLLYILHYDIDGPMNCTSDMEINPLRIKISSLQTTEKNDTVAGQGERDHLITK
Chain of αvβ5 receptors (P06756 891-1048 partner limits assumed): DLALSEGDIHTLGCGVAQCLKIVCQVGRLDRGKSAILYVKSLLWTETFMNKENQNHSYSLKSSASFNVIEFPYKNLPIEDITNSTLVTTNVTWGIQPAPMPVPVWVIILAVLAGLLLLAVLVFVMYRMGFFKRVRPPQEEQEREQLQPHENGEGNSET
Chain of αvβ5 receptors (P18084 24-799): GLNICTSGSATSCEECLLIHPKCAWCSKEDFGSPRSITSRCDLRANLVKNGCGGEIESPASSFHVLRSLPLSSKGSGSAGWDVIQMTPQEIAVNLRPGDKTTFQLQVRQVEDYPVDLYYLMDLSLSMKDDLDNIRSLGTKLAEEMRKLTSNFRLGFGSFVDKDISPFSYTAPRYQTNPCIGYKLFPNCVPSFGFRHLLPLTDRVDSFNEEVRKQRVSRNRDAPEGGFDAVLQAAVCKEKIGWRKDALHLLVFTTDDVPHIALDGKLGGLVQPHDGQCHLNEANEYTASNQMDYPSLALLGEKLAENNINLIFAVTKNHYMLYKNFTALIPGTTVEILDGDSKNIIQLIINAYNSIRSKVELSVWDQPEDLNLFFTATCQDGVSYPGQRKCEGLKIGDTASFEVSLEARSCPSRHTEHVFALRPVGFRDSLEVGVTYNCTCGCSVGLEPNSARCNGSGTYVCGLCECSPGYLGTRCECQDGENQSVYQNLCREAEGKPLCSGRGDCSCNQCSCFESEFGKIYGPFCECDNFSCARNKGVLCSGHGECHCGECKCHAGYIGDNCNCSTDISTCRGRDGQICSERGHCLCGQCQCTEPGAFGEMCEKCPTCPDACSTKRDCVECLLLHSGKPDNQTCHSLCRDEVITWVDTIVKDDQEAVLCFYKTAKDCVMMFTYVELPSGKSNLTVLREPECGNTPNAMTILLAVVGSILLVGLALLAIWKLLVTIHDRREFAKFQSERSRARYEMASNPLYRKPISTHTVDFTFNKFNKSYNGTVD
Procedure: as §1, §2

[3] = 0.92 mg/10 ml/kg s.c. qdx5/wx2w
[4] = 2.77 mg/10 ml/kg s.c. qdx5/wx2w

Chain of αvβ3 receptor (P06756 31-889 limits assumed): as the sequence (P06756 31-889 limits assumed) above
Chain of αvβ3 receptor (P06756 891-1048 partner limits assumed): as the sequence (P06756 891-1048 partner limits assumed) above
Chain of αvβ3 receptor (P05106 27-788): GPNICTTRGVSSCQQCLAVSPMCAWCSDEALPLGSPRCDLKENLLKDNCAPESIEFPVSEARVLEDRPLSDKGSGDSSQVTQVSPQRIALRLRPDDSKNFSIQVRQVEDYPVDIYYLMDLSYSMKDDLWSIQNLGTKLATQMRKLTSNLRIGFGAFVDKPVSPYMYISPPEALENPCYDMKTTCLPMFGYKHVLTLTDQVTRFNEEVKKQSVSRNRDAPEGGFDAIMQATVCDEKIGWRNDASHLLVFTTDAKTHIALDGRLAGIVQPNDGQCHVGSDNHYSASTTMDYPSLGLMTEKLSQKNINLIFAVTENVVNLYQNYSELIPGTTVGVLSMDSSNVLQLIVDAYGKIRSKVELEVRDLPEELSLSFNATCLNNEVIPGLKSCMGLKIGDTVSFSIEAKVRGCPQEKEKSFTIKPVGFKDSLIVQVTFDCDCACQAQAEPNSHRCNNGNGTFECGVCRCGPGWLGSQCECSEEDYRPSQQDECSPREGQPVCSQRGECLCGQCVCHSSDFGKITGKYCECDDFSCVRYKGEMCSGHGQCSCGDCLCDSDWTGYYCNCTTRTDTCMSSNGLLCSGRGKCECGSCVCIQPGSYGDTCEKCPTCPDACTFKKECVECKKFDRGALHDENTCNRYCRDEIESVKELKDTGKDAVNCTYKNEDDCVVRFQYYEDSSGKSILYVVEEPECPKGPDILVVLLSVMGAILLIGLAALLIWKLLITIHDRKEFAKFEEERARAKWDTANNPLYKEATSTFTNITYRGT

SMILES: CC[C@@]1(O)C(=O)OCc2c1cc1n(c2=O)Cc2c-1nc1ccccc1c2C=NOCCNC(=O)OCc1ccc(NC(=O)[C@H](CCCNC(N)=O)NC(=O)[C@H](C)NC(=O)COCCOCCOCC(=O)NCc2ccc(C[C@@H]3NC(=O)[C@@H](Cc4ccccc4)NC(=O)[C@H](CC(=O)O)NC(=O)CNC(=O)[C@H](CCCNC(=N)N)NC3=O)cc2)cc1 [ST3833]
- IC50 (αvβ3 receptor): 78.4 ± 1.5 nM
- Ki (αvβ3 receptor): 61 nM
- MTD at 2 weeks [1]: ~25 mg/kg
- BWL % (maximum body weight loss) [2, 3]: 0%
- CR (disappearance of tumour) [2, 3]: 3/10
- Cured (mice without lesion 90 days after tumour injection) [2, 3]: 3/10
- LCK (log cell kill) [2, 3]: 0.9
- Lethal toxicity (dead/treated animals) [2, 3]: 0/10
- TVI % versus control mice [2, 3]: 60%
- cured mice ([2]; 0.92 mg/kg): 30%
- BWL % (maximum body weight loss) [2, 4]: 0%
- CR (disappearance of tumour) [2, 4]: 3/10
- Cured (mice without lesion 90 days after tumour injection) [2, 4]: 3/10
- LCK (log cell kill) [2, 4]: 1.1
- Lethal toxicity (dead/treated animals) [2, 4]: 0/10
- TVI % versus control mice [2, 4]: 75%
- cured mice ([2]; 2.77 mg/kg): 30%
- BWL % (maximum body weight loss) ([2]; 8.3 mg/10 ml/kg s.c. qdx5/wx2w): 0%
- CR (disappearance of tumour) ([2]; 8.3 mg/10 ml/kg s.c. qdx5/wx2w): 5/10
- Cured (mice without lesion 90 days after tumour injection) ([2]; 8.3 mg/10 ml/kg s.c. qdx5/wx2w): 4/10
- LCK (log cell kill) ([2]; 8.3 mg/10 ml/kg s.c. qdx5/wx2w): 2.7
- Lethal toxicity (dead/treated animals) ([2]; 8.3 mg/10 ml/kg s.c. qdx5/wx2w): 0/10
- TVI % versus control mice ([2]; 8.3 mg/10 ml/kg s.c. qdx5/wx2w): 100%
- BWL % (maximum body weight loss) ([2]; 25 mg/10 ml/kg s.c. qdx5/wx2w): 25% and 24%
- CR (disappearance of tumour) ([2]; 25 mg/10 ml/kg s.c. qdx5/wx2w): 9/9
- Cured (mice without lesion 90 days after tumour injection) ([2]; 25 mg/10 ml/kg s.c. qdx5/wx2w): 9/9
- LCK (log cell kill) ([2]; 25 mg/10 ml/kg s.c. qdx5/wx2w): >11.4
- Lethal toxicity (dead/treated animals) ([2]; 25 mg/10 ml/kg s.c. qdx5/wx2w): 1/10
- TVI % versus control mice ([2]; 25 mg/10 ml/kg s.c. qdx5/wx2w): 100%
- cured mice ([2]; 1/3 MTD (8.3 mg/kg)): 50%
- cured mice at day 90 ([2]; at the MTD (25 mg/kg s.c.)): 100%
- IC50 (αvβ5 receptors): 87.8 ± 1.21 nM
- Ki (αvβ5 receptors): 68.2 nM
